Measurements as given in PMC8296573, “Synthesis and Biological Evaluation of Fingolimod Derivatives as Antibacterial Agents” (ACS Omega, 2021).
Values after ≈ are worked out from the molar mass of the structure shown. Like-named read-outs stand apart in the source and are kept apart here.

How the values were obtained:
A. baumannii NCTC 13423 = test: Antibacterial activity, pre-exposure; type: cell-based, Acinetobacter baumannii; conditions: for Average inhibition %, biofilms viability / Average inhibition %, planktonic cells viability / inhibition at 10 µM / inhibition at 15 µM / inhibition at 25 µM / inhibition at 50 µM: A. baumannii NCTC 13423, pre-exposure, ± SD; for inhibition at 10 µM / inhibition at 15 µM / inhibition at 25 µM / inhibition at 50 µM / MIC: Acinetobacter baumannii, NCTC13423
Method in brief: (§1)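 Compounds in DMSO were plated before bacteria were added (pre-exposure) and incubated 18 h aerobically at 37 °C with shaking. Planktonic cells were read by OD and resazurin fluorescence (20 μM final; ex 560/em 590 nm). Biofilms were read by resazurin, then crystal violet (A595) for total biomass.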

P. aeruginosa ATCC 9027 = test: Antibacterial activity, pre-exposure; type: cell-based, Pseudomonas aeruginosa; conditions: for Average inhibition %, biofilms viability / Average inhibition %, planktonic cells viability / inhibition at 50 µM / inhibition at 100 µM / inhibition at 150 µM / inhibition at 200 µM: P. aeruginosa ATCC 9027, pre-exposure, ± SD; for MIC / inhibition at 50 µM / inhibition at 100 µM / inhibition at 150 µM / inhibition at 200 µM: Pseudomonas aeruginosa; for inhibition at 50 µM / inhibition at 100 µM / inhibition at 150 µM / inhibition at 200 µM: ATCC9027
Method in brief: as §1

S. aureus ATCC 25923 [1] = test: Antibacterial activity, pre-exposure (planktonic cells and biofilm formation); type: cell-based, Staphylococcus aureus; conditions: for MIC / inhibition at 5 µM / inhibition at 10 µM / inhibition at 15 µM / inhibition at 25 µM: Staphylococcus aureus, ATCC25923; for inhibition at 5 µM / inhibition at 10 µM / inhibition at 15 µM / inhibition at 25 µM / Average inhibition %, biofilms viability / Average inhibition %, planktonic cells viability: pre-exposure, ± SD
Method in brief: as §1

S. aureus ATCC 25923 [2] = test: Antibacterial activity, post-exposure on preformed 18-h-old biofilms; type: cell-based, Staphylococcus aureus; conditions: ± SD; for inhibition at 25 µM / inhibition at 50 µM / inhibition at 100 µM / inhibition at 200 µM: Staphylococcus aureus; for inhibition at 25 µM: ATCC25923, 25 µM; for inhibition at 50 µM: ATCC25923, 50 µM; for inhibition at 100 µM: ATCC25923, 100 µM; for inhibition at 200 µM: ATCC25923, 200 µM
Method in brief: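 Biofilms grown 18 h without compound, medium then replaced and compound added for a further 24 h. Planktonic OD and resazurin (20 μM final) fluorescence (ex 560/em 590 nm) read; washed biofilms stained with 20 μM resazurin 30 min at 37 °C, then ethanol-fixed and crystal violet-stained, absorbance 595 nm.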

[3] = 10 µM, read-out: Average inhibition %, biofilms biomass
[4] = 10 µM, read-out: Average inhibition %, planktonic cells turbidity
[5] = 15 µM, read-out: Average inhibition %, biofilms biomass
[6] = 15 µM, read-out: Average inhibition %, planktonic cells turbidity
[7] = 25 µM, read-out: Average inhibition %, biofilms biomass
[8] = 25 µM, read-out: Average inhibition %, planktonic cells turbidity
[9] = 50 µM, read-out: Average inhibition %, biofilms biomass
[10] = 50 µM, read-out: Average inhibition %, planktonic cells turbidity
[11] = read-out: Average inhibition %, biofilms biomass
[12] = read-out: Average inhibition %, planktonic cells turbidity

Question: `CCCCCCCCOc1ccc(CCC(N)(CO)CO)cc1` [Compound 48, 2-Amino-2-[4-(octyloxy)phenethyl]propane-1,3-diol] was tested. Which “Average inhibition %, biofilms viability” value (A. baumannii NCTC 13423; 10 µM) did it give?
Answer: 0 ± 0%

Question: And the “Average inhibition %, planktonic cells viability” value (A. baumannii NCTC 13423; 10 µM)?
Answer: 5.1 ± 0.7%

Question: What about the “Average inhibition %, biofilms viability” value (A. baumannii NCTC 13423; 15 µM) of the same molecule?
Answer: 1.4 ± 1.2%

Question: What about the “Average inhibition %, planktonic cells viability” value (A. baumannii NCTC 13423; 15 µM) of the same molecule?
Answer: 0 ± 0%

Question: And the “Average inhibition %, biofilms viability” value (A. baumannii NCTC 13423; 25 µM)?
Answer: 68.3 ± 27.4%

Question: And the “Average inhibition %, planktonic cells viability” value (A. baumannii NCTC 13423; 25 µM)?
Answer: 48.6 ± 48.9%

Question: And the “Average inhibition %, biofilms viability” value (A. baumannii NCTC 13423; 50 µM)?
Answer: 93.8 ± 1.3%

Question: And the “Average inhibition %, planktonic cells viability” value (A. baumannii NCTC 13423; 50 µM)?
Answer: 97.8 ± 0.3%

Question: And the inhibition at 10 µM (A. baumannii NCTC 13423; [3])?
Answer: 0%

Question: And the inhibition at 10 µM (A. baumannii NCTC 13423; [4])?
Answer: 0%

Question: And the inhibition at 15 µM (A. baumannii NCTC 13423; [5])?
Answer: 0%

Question: And the inhibition at 15 µM (A. baumannii NCTC 13423; [6])?
Answer: 0%

Question: What about the inhibition at 25 µM (A. baumannii NCTC 13423; [7]) of the same molecule?
Answer: 38.9 ± 34.1%

Question: What about the inhibition at 25 µM (A. baumannii NCTC 13423; [8]) of the same molecule?
Answer: 63.2 ± 30.2%

Question: What about the inhibition at 50 µM (A. baumannii NCTC 13423; [9]) of the same molecule?
Answer: 56.9 ± 19.5%

Question: And the inhibition at 50 µM (A. baumannii NCTC 13423; [10])?
Answer: 94.4 ± 2.3%

Question: And the MIC (A. baumannii NCTC 13423; pre-exposure, Inactive = no activity up to 50 μM, > = some inhibition but no MIC reached, read-out: MIC A. baumannii NCTC 13423)?
Answer: > 50 µM

Question: And the MIC (A. baumannii NCTC 13423; supplementary molecular formula strings sheet, read-out: MIC (A. baumannii))?
Answer: > 50 µM

Question: And the “Average inhibition %, biofilms viability” value (P. aeruginosa ATCC 9027; 50 µM)?
Answer: 27.9 ± 25.6%

Question: And the “Average inhibition %, planktonic cells viability” value (P. aeruginosa ATCC 9027; 50 µM)?
Answer: 28 ± 9%

Question: What about the “Average inhibition %, biofilms viability” value (P. aeruginosa ATCC 9027; 100 µM) of the same molecule?
Answer: 20.3 ± 9.9%

Question: And the “Average inhibition %, planktonic cells viability” value (P. aeruginosa ATCC 9027; 100 µM)?
Answer: 76.1 ± 19.4%

Question: And the “Average inhibition %, biofilms viability” value (P. aeruginosa ATCC 9027; 150 µM)?
Answer: 17 ± 12.1%

Question: And the “Average inhibition %, planktonic cells viability” value (P. aeruginosa ATCC 9027; 150 µM)?
Answer: 88 ± 8.4%

Question: What about the “Average inhibition %, biofilms viability” value (P. aeruginosa ATCC 9027; 200 µM) of the same molecule?
Answer: 12.2 ± 5.8%

Question: What about the “Average inhibition %, planktonic cells viability” value (P. aeruginosa ATCC 9027; 200 µM) of the same molecule?
Answer: 93.5 ± 0.6%

Question: And the MIC (P. aeruginosa ATCC 9027; ATCC9027, pre-exposure, Inactive = no activity up to 200 μM, > = some inhibition but no MIC reached, read-out: MIC P. aeruginosa ATCC 9027)?
Answer: > 200 µM

Question: What about the MIC (P. aeruginosa ATCC 9027; ATCC9027, supplementary molecular formula strings sheet, read-out: MIC (P. aeruginosa)) of the same molecule?
Answer: > 200 µM

Question: And the inhibition at 50 µM (P. aeruginosa ATCC 9027; [9])?
Answer: 14.7 ± 10.8%

Question: What about the inhibition at 50 µM (P. aeruginosa ATCC 9027; [10]) of the same molecule?
Answer: 18.6 ± 7.4%

Question: And the inhibition at 100 µM (P. aeruginosa ATCC 9027; 100 µM, read-out: Average inhibition %, biofilms biomass)?
Answer: 29.1 ± 19.9%

Question: And the inhibition at 100 µM (P. aeruginosa ATCC 9027; 100 µM, read-out: Average inhibition %, planktonic cells turbidity)?
Answer: 83.9 ± 2.6%

Question: And the inhibition at 150 µM (P. aeruginosa ATCC 9027; 150 µM, read-out: Average inhibition %, biofilms biomass)?
Answer: 37.8 ± 2.9%

Question: What about the inhibition at 150 µM (P. aeruginosa ATCC 9027; 150 µM, read-out: Average inhibition %, planktonic cells turbidity) of the same molecule?
Answer: 85.6 ± 3.3%

Question: What about the inhibition at 200 µM (P. aeruginosa ATCC 9027; 200 µM, read-out: Average inhibition %, biofilms biomass) of the same molecule?
Answer: 36.9 ± 6.7%

Question: What about the inhibition at 200 µM (P. aeruginosa ATCC 9027; 200 µM, read-out: Average inhibition %, planktonic cells turbidity) of the same molecule?
Answer: 87.8 ± 4.2%

Question: What about the MIC (S. aureus ATCC 25923 [1]; lowest concentration with no visible growth (>90% inhibition of turbidity and viability of planktonic cells), 18 h, read-out: MIC S. aureus ATCC 25923) of the same molecule?
Answer: 15 to 25 µM (≈ 4.85 to 8.09 µg/mL)

Question: What about the inhibition at 5 µM (S. aureus ATCC 25923 [1]; 5 µM, read-out: Average inhibition %, biofilms biomass) of the same molecule?
Answer: 28.7 ± 25.2%

Question: What about the inhibition at 5 µM (S. aureus ATCC 25923 [1]; 5 µM, read-out: Average inhibition %, planktonic cells turbidity) of the same molecule?
Answer: 13.6 ± 13.1%

Question: And the inhibition at 10 µM (S. aureus ATCC 25923 [1]; [3])?
Answer: 31.9 ± 24.6%

Question: And the inhibition at 10 µM (S. aureus ATCC 25923 [1]; [4])?
Answer: 40.8 ± 18.5%

Question: What about the inhibition at 15 µM (S. aureus ATCC 25923 [1]; [5]) of the same molecule?
Answer: 53.1 ± 42.8%

Question: And the inhibition at 15 µM (S. aureus ATCC 25923 [1]; [6])?
Answer: 47.2 ± 50%

Question: And the inhibition at 25 µM (S. aureus ATCC 25923 [1]; [7])?
Answer: 92 ± 5.9%

Question: What about the inhibition at 25 µM (S. aureus ATCC 25923 [1]; [8]) of the same molecule?
Answer: 97.4 ± 2.6%

Question: And the MIC (S. aureus ATCC 25923 [1]; read-out: MIC (S. aureus))?
Answer: 15 to 25 µM (≈ 4.85 to 8.09 µg/mL)

Question: What about the “Average inhibition %, biofilms viability” value (S. aureus ATCC 25923 [1]; 5 µM) of the same molecule?
Answer: 22.4 ± 5.4%

Question: And the “Average inhibition %, planktonic cells viability” value (S. aureus ATCC 25923 [1]; 5 µM)?
Answer: 0 ± 0%

Question: What about the “Average inhibition %, biofilms viability” value (S. aureus ATCC 25923 [1]; 10 µM) of the same molecule?
Answer: 16.7 ± 15%

Question: What about the “Average inhibition %, planktonic cells viability” value (S. aureus ATCC 25923 [1]; 10 µM) of the same molecule?
Answer: 20.3 ± 20.7%

Question: And the “Average inhibition %, biofilms viability” value (S. aureus ATCC 25923 [1]; 15 µM)?
Answer: 48.8 ± 44.2%

Question: And the “Average inhibition %, planktonic cells viability” value (S. aureus ATCC 25923 [1]; 15 µM)?
Answer: 36.9 ± 54.3%

Question: What about the “Average inhibition %, biofilms viability” value (S. aureus ATCC 25923 [1]; 25 µM) of the same molecule?
Answer: 99.5 ± 0.8%

Question: What about the “Average inhibition %, planktonic cells viability” value (S. aureus ATCC 25923 [1]; 25 µM) of the same molecule?
Answer: 99.7 ± 0.2%

Question: And the “Average inhibition %, biofilms viability” value (S. aureus ATCC 25923 [2]; 25 µM)?
Answer: 21 ± 14.6%

Question: What about the “Average inhibition %, planktonic cells viability” value (S. aureus ATCC 25923 [2]; 25 µM) of the same molecule?
Answer: 0.9 ± 1.6%

Question: And the “Average inhibition %, biofilms viability” value (S. aureus ATCC 25923 [2]; 50 µM)?
Answer: 42.3 ± 5.5%

Question: What about the “Average inhibition %, planktonic cells viability” value (S. aureus ATCC 25923 [2]; 50 µM) of the same molecule?
Answer: 0 ± 0%

Question: And the “Average inhibition %, biofilms viability” value (S. aureus ATCC 25923 [2]; 100 µM)?
Answer: 52.5 ± 9.2%

Question: What about the “Average inhibition %, planktonic cells viability” value (S. aureus ATCC 25923 [2]; 100 µM) of the same molecule?
Answer: 21.3 ± 18.5%

Question: What about the “Average inhibition %, biofilms viability” value (S. aureus ATCC 25923 [2]; 200 µM) of the same molecule?
Answer: 52 ± 9.4%

Question: And the “Average inhibition %, planktonic cells viability” value (S. aureus ATCC 25923 [2]; 200 µM)?
Answer: 48.3 ± 23.5%

Question: And the inhibition at 25 µM (S. aureus ATCC 25923 [2]; [11])?
Answer: 47.6 ± 0.5%

Question: And the inhibition at 25 µM (S. aureus ATCC 25923 [2]; [12])?
Answer: 9.3 ± 10%

Question: What about the inhibition at 50 µM (S. aureus ATCC 25923 [2]; [11]) of the same molecule?
Answer: 57.8 ± 6.5%

Question: And the inhibition at 50 µM (S. aureus ATCC 25923 [2]; [12])?
Answer: 12.6 ± 10.9%

Question: What about the inhibition at 100 µM (S. aureus ATCC 25923 [2]; [11]) of the same molecule?
Answer: 65.9 ± 12.5%

Question: And the inhibition at 100 µM (S. aureus ATCC 25923 [2]; [12])?
Answer: 31.2 ± 10.9%

Question: And the inhibition at 200 µM (S. aureus ATCC 25923 [2]; [11])?
Answer: 72.5 ± 9.8%

Question: And the inhibition at 200 µM (S. aureus ATCC 25923 [2]; [12])?
Answer: 40 ± 13.2%
